In assay [1] the target is T1, 5-Lipoxygenase from HWBL-1 20,000 xg Supernatant (Rattus norvegicus, UniProt P12527).
T1 construct: 20,000 xg supernatant from 1.5 million homogenized HWBL-1 cells; endogenous in cells
T1 sequence (P12527 1-673): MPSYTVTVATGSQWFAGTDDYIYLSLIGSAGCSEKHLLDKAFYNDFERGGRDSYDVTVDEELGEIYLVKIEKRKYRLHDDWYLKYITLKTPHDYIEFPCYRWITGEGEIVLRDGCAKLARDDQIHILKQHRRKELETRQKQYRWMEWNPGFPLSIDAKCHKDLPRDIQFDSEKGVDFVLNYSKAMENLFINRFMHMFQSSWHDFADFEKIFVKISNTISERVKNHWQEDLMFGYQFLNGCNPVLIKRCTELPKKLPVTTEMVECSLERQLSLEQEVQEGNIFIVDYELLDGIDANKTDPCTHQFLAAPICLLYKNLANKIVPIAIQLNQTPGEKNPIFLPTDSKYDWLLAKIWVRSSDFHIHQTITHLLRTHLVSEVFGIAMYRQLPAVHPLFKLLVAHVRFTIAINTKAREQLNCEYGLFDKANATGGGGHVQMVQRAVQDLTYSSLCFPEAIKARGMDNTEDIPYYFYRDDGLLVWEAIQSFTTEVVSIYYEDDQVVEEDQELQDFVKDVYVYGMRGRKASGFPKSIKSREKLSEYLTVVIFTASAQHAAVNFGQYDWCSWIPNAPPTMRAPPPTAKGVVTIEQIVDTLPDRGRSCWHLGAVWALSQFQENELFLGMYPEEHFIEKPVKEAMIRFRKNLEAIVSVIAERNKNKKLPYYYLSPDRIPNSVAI
Description: 5-lipoxygenase inhibition, 20,000 xg supernatant of homogenized HWBL-1 cells, radiolabeled arachidonic acid. It counts as biochemical. As to conditions: read-out: IC50 (in vitro inhibitory potency against 5-lipoxygenase). As for the experimental part:
Assays to determine 5-lipoxygenase inhibitory activity of representative compounds of the present invention were performed in […] incubations containing the 20,000 xg supernatant from 1.5 million homogenized HWBL-1 cells and various concentrations of the test compound. Reactions were initiated by addition of radiolabeled arachidonic acid and terminated by acidification and ether extraction. Reaction products were separated from nonconverted substrate by thin layer chromatography and measured by liquid scintillation spectroscopy. All incubations are performed in triplicate. Inhibition of 5-lipoxygenase activity was calculated as the ratio of the amount of product formed in the presence and absence of inhibitor. IC50 values (concentration of compound producing 50% enzyme inhibition) were calculated by linear regression analysis of percentage inhibition versus log inhibitor concentration plots. (Dyer, R. D.; Haviv, F.; Hanel, A. M.; Bornemier, D. A.; Carter, G. W. Fed. Proc., Fed. Am. Soc. Exp. Biol. 1984, 43, 1462A).
In Vitro Inhibitory Potencies of Compounds of this Invention
Against 5-Lipoxygenase from HWBL-1 20,000 xg Supernatant

Assay [2] has as its system Leukotrienes. Description: inhibition of leukotriene biosynthesis in vivo, rat peritoneal anaphylaxis model, oral. The note with it: oral gavage, 1 h before antigen challenge; for inhibition in vivo at 100 µmol/kg: 100 μmol/kg, read-out: % Inhibition of Leukotrienes, Oral Dose at 100 μmol/kg; for inhibition in vivo at 30 µmol/kg: read-out: % Inhibition of Leukotrienes, Oral Dose at 30 μmol/kg. As to the method: Inhibition of the biosynthesis of leuktrienes in vivo after oral administration of compound was determined using a rat peritoneal anaphylaxis model in a similar manner as that described by Young and coworkers (Young, P. R.; Dyer, R. D.; Carter, G. W. Fed. Proc., Fed. Am. Soc. Exp. Biol. 1985, 44, 1185). In this model rats were injected intraperitoneally (ip) with rabbit antibody to bovine serum albumin (BSA) and three hours later injected ip with BSA to induce an antgen-antibody response. Rats were sacrificed 15 minutes after this challenge and the peritoneal fluids were collected and analyzed for leukotriene levels. Test compounds were administered by gavage one hour prior to the antigen challenge. Percent inhibition values were determined by comparing the treatment group to the mean of the control group.

By IC50 is commonly meant the concentration that gives 50% inhibition. Turning to `NC(=O)N(O)CCNC(=O)c1cccc(Oc2ccccc2)c1` [Example 2], the IC50 in assay [1] is 230 nM. Also, in assay [2], the inhibition in vivo at 100 µmol/kg stood at 84%.
Consider `CCCCOc1cccc(C(=O)NCCN(O)C(N)=O)c1` [Example 19], for which the IC50 in assay [1] came to 260 nM. Further, in assay [2], the inhibition in vivo at 100 µmol/kg was determined as 63%.
The like results for `NC(=O)N(O)CCCNC(=O)c1cccc(Oc2ccccc2)c1` [Example 21] were, in that order, 70 nM and 95%.
For `CNC(=O)N(O)CCCNC(=O)c1cccc(Oc2ccccc2)c1` [Example 23, N-Hydroxy-N'-methyl-N-[3-((3-phenoxybenzoyl)amino)propyl]urea], the inhibition in vivo at 30 µmol/kg in assay [2] (30 μmol/kg) was determined as 57%.
Regarding `NC(=O)N(O)CCNC(=O)c1cccc(Oc2ccc(Cl)cc2)c1` [Example 26, N-Hydroxy-N-[2-((3-(4-chlorophenoxy)benzoyl)amino)ethyl]urea], the IC50 in assay [1] worked out at 160 nM. Also, the inhibition in vivo at 100 µmol/kg in assay [2] was determined as 99%.
For `C[C@H](CN(O)C(N)=O)NC(=O)c1cccc(Oc2ccccc2)c1` [Example 32, (R)-N-Hydroxy-N-[2-((3-phenoxybenzoyl)amino)propyl]urea], in that order: 210 nM and 90%.
For `NC(=O)N(O)CCNC(=O)c1cccc(OCc2ccccc2)c1` [Example 35, N-Hydroxy-N-[2-((3-phenylmethyloxybenzoyl)amino)ethyl]urea], in that order: 220 nM and 15%.
For `NC(=O)N(O)CCNC(=O)c1ccc(Oc2ccccc2)o1` [Example 36, N-Hydroxy-N-[2-((5-phenoxyfuran-2-oyl)amino)ethyl]urea], the IC50 in assay [1] amounted to 130 nM. In addition, in assay [2] (30 μmol/kg), the inhibition in vivo at 30 µmol/kg came to 78%.
Consider `CN(CCN(O)C(N)=O)Cc1cccc(Oc2ccc(Cl)cc2)c1` [Example 37, N-Hydroxy-N-[2-(N-methyl-((3-(4-chlorophenoxy)phenyl)methyl)amino)ethyl]urea], for which the IC50 in assay [1] was determined as 100 nM. For the same molecule, in assay [2], the inhibition in vivo at 100 µmol/kg amounted to 80%.
For `COc1ccc(Oc2cccc(CN(C)CCN(O)C(N)=O)c2)cc1` [Example 38], in that order: 200 nM and 86%.
For `CN(CCN(O)C(N)=O)Cc1cccc(Oc2cc(Cl)cc(Cl)c2)c1` [Example 40, N-Hydroxy-N-[2-(N-methyl-((3-(3,5-dichlorophenoxy)phenyl)methyl)amino)ethyl]urea], in that order: 150 nM and 76%.
As to `NC(=O)N(O)CCNC(=O)c1ccccc1Oc1ccccc1` [Example 51, N-Hydroxy-N-[2-((2-phenoxybenzoyl)amino)ethyl]urea], in assay [1], the IC50 stood at 240 nM. In addition, the inhibition in vivo at 30 µmol/kg in assay [2] (30 μmol/kg) came out at 47%.
On to `NC(=O)N(O)CCNC(=O)c1ccc(Oc2ccccc2)cc1` [Example 52, N-Hydroxy-N-[2-((4-phenoxybenzoyl)amino)ethyl]urea], for which the 50% inhibitory concentration (IC50) in assay [1] was 160 nM. Further, the inhibition in vivo at 30 µmol/kg in assay [2] (30 μmol/kg) stood at 19%.
`NC(=O)N(O)CCNC(=O)c1cccc(Oc2ccc(Br)cc2)c1` [Example 53, N-Hydroxy-N-[2-(3-((4-bromophenoxy)benzoyl)amino)ethyl]urea]: the IC50 in assay [1] was found to be 440 nM. Also, in assay [2] (30 μmol/kg), the inhibition in vivo at 30 µmol/kg is 33%.
The like results for `NC(=O)N(O)CCNC(=O)c1cccc(Oc2ccc(F)cc2)c1` [Example 54, N-Hydroxy-N-[2-(3-((4-fluorophenoxy)benzoyl)amino)ethyl]urea] were, in that order, 150 nM and 11%.
Take `NC(=O)N(O)CCNC(=O)c1cccc(Oc2ccccn2)c1` [Example 55, N-Hydroxy-N-[2-((3-(pyrid-2-yloxy)benzoyl)amino)ethyl]urea]: in assay [1], the concentration for half-maximal inhibition (IC50) came out at 1000 nM. Moreover, in assay [2], the inhibition in vivo at 100 µmol/kg came out at 83%.
With `NC(=O)N(O)CCNC(=O)Cc1cccc(Oc2ccccc2)c1` [Example 56, N-Hydroxy-N-[2-((3-phenoxyphenylacetyl)amino)ethyl]urea], the IC50 in assay [1] worked out at 220 nM. For the same molecule, the inhibition in vivo at 100 µmol/kg in assay [2] was 85%.
For `NC(=O)N(O)CCNC(=O)c1ccc(Oc2ccc(Cl)cc2)o1` [Example 58, N-Hydroxy-N-[2-((5-(4-chlorophenoxy)furan-2-oyl)amino)ethyl]urea], the IC50 in assay [1] was found to be 110 nM. In addition, in assay [2], the “% Inhibition of Leukotrienes, Oral Dose at 50 μmol/kg” value turned out to be 81%.
For the molecule `C[C@@H](CN(O)C(N)=O)NC(=O)c1ccc(Oc2ccc(F)cc2)o1` [Example 60], the IC50 in assay [1] turned out to be 280 nM. Moreover, the inhibition in vivo at 100 µmol/kg in assay [2] turned out to be 84%.
On to `NC(=O)N(O)CCNC(=O)c1ccc(Oc2ccc(F)cc2)o1` [Example 61], for which the IC50 in assay [1] stood at 160 nM. Besides, in assay [2], the “% Inhibition of Leukotrienes, Oral Dose at 50 μmol/kg” value came out at 60%.
As to `NC(=O)N(O)CCNC(=O)c1cc2ccccc2o1` [Example 63, N-Hydroxy-N-[((benzo[b]furan-2-oyl)amino)ethyl]urea], the IC50 in assay [1] turned out to be 1000 nM. The inhibition in vivo at 30 µmol/kg in assay [2] (30 μmol/kg) was 52%.
Take `NC(=O)N(O)CCNC(=O)COc1ccccc1Oc1ccccc1` [Example 73, N-Hydroxy-N-[2-((2-phenoxyphenoxyacetyl)amino)ethyl]urea]: in assay [2] (30 μmol/kg), the inhibition in vivo at 30 µmol/kg worked out at 53%.
For `CC(C)Cc1ccc(C(C)C(=O)NCCN(O)C(N)=O)cc1` (centres unmarked) [Example 82, N-Hydroxy-N-[2-((2-(4-(2-methylpropyl)phenyl)propionyl)amino)ethyl]urea], the IC50 in assay [1] amounted to 5000 nM.
The same measure, in the same setting: the figure for `NC(=O)N(O)CCNC(=O)Cc1ccccc1Nc1c(Cl)cccc1Cl` [Example 83, N-Hydroxy-N-[2((2-(2.6-dichlorophenylamino)phenylacetyl)amino)ethyl]urea] is 440 nM.
With `NC(=O)N(O)CCNC(=O)c1csc(-c2ccccc2)n1` [Example 84, N-Hydroxy-N-[2-((2-phenylthiazol-4-oyl)amino)ethyl]urea], the IC50 in assay [1] was 930 nM.
On the same count and under the same terms, with `CC(CNC(=O)OC(C)(C)C)N(O)C(N)=O` (centres unmarked) [Example 85, (d.l)-N-Hydroxy-N-[3-((tert-butyoxycarbonyl)amino)prop-2-yl]urea] the figure was 290 nM.
With `CC(Oc1ccccc1C(=O)NCCN(O)C(N)=O)c1ccccc1` (centres unmarked) [Example 87, N-Hydroxy-N-[2-((2-(1-phenylethyloxy)benzoyl)amino)ethyl]urea], in assay [1], the IC50 turned out to be 370 nM. Besides, in assay [2], the inhibition in vivo at 100 µmol/kg turned out to be 60%.
In the case of `CC(CCNC(=O)c1ccc(Oc2ccc(F)cc2)o1)N(O)C(N)=O` (centres unmarked) [Example 88, N-Hydroxy-N-[4-((5-(4-fluorophenoxy)furan-2-oyl)amino)but-2-yl]urea], in assay [1], the IC50 was determined as 280 nM. Besides, the inhibition in vivo at 30 µmol/kg in assay [2] (30 μmol/kg) was found to be 84%.
As for “N-Hydroxy-N-[2-((3-(4-chlorophenylsulfonyl)benzoyl)amino)ethyl]urea [Example 62]”, the IC50 in assay [1] came out at 910 nM.
As to “N-Hydroxy-N-[((4-chlorobenzo[b]thien-2-oyl)amino)ethyl]urea [Example 64]”, the IC50 in assay [1] turned out to be 2100 nM. Also, the “% Inhibition of Leukotrienes, Oral Dose at 30 μmol/kg” value in assay [2] (30 μmol/kg) was 92%.

The record behind these values is patent US5214204A, “Arylamidoalkyl-N-hydroxyurea compounds having lipoxygenase inhibitory activity” (Abbott Laboratories, priority 1991, dated 1993).
